Measurements: patent US20230043198A1, “MICROBIOTA METABOLITES THAT SHAPE HOST PHYSIOLOGY” (Yale University, priority 2018, published 2023)
Like-named read-outs stand apart in the source and are kept apart here. Values belong to the compound of their own block, whether it stands above or below them.

How the values were obtained:
[1] = biological target: GPR56/AGRG1 (Homo sapiens, UniProt Q9Y653); assay: GPR56 PRESTO-Tango; details: titrating doses of pure amino acid
[2] = system: colon motility; details: rodents; cited from earlier work
[3] = biological target: GPR97/AGRG3 (Homo sapiens, UniProt Q86Y34); assay: GPR97 PRESTO-Tango; details: titrating doses of pure amino acid
[4] = biological target: GPR56-ANT (a mutant lacking the extracellular domain) (Homo sapiens, UniProt Q9Y653); assay: PRESTO-Tango on GPR56 truncation mutant; details: titrating doses of L-Phe
[5] = biological target: T1, DRD2 (Homo sapiens, UniProt P14416); details: for phenethylamine as measured by DRD2 activation by cecal and colonic extracts: L-Phe deficient diet, MAOI
[6] = biological target: T1, DRD2; assay: DRD2 PRESTO-Tango; format: cell-based; details: pure ligand
[7] = biological target: DRD3 (Homo sapiens, UniProt P35462); assay: DRD3 PRESTO-Tango; format: cell-based; details: pure ligand
[8] = biological target: T2, DRD4 (Homo sapiens, UniProt P21917); assay: DRD4 PRESTO-Tango; format: cell-based; details: pure ligand
T2 sequence (P21917 1-419): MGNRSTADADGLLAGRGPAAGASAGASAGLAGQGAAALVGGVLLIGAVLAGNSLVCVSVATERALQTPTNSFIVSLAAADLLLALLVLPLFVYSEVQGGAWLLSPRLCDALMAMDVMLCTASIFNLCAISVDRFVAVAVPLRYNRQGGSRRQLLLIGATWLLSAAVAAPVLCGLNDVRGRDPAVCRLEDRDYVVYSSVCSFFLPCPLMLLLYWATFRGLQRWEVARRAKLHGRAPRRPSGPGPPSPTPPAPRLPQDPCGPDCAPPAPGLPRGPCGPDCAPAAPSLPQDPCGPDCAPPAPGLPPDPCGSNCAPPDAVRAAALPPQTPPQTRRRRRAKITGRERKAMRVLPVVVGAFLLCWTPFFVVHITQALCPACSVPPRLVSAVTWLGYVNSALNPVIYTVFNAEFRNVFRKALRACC

[9] = in vivo; cited from earlier work
[10] = system: colon motility; assay: Intestinal motility by fecal output; format: in vivo, C57Bl/6 mice; details: M. morganii colonized mice, 1% L-His in water for 2 weeks

GPR56/AGRG1, sequence (Q9Y653 26-693): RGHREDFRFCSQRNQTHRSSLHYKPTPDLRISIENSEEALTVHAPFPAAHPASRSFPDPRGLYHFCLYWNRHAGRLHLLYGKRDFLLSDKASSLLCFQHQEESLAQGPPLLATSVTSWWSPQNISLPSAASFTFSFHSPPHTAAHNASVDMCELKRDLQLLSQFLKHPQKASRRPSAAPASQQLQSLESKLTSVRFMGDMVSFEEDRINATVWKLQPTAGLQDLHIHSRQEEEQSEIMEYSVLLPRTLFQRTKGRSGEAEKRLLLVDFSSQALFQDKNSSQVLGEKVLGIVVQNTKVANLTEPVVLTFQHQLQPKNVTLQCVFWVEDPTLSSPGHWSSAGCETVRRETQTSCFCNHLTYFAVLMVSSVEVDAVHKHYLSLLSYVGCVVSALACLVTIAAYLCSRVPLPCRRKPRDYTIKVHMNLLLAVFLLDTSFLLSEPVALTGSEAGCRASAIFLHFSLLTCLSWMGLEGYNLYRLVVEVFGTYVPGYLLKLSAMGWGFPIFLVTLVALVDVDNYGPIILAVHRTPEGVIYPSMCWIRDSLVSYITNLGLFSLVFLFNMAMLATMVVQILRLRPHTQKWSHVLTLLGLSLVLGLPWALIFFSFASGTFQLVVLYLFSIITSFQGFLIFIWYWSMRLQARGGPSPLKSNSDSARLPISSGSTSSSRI
T1 sequence (P14416 whole entry): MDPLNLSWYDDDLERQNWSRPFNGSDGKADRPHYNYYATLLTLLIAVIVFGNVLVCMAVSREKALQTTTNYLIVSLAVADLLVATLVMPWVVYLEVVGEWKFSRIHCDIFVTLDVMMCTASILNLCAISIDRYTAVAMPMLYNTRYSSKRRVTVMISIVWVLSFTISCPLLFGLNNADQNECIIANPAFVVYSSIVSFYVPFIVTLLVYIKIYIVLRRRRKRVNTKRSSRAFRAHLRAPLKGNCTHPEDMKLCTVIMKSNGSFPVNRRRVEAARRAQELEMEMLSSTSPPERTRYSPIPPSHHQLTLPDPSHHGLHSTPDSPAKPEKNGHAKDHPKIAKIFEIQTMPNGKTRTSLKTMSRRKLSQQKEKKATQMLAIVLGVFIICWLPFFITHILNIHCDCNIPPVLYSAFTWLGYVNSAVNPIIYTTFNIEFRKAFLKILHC
DRD3, sequence (P35462 whole entry): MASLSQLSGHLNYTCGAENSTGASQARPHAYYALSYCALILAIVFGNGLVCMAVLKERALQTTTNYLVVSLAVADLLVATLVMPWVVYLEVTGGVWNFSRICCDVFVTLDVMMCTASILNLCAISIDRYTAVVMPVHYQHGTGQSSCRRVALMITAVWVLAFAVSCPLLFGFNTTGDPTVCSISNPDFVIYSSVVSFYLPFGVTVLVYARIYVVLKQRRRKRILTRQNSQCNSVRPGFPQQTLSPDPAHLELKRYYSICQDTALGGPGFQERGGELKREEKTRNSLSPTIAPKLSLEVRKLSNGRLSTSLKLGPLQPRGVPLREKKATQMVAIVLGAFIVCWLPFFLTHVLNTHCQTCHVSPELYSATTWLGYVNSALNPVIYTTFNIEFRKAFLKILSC
GPR97/AGRG3, sequence (Q86Y34 21-549): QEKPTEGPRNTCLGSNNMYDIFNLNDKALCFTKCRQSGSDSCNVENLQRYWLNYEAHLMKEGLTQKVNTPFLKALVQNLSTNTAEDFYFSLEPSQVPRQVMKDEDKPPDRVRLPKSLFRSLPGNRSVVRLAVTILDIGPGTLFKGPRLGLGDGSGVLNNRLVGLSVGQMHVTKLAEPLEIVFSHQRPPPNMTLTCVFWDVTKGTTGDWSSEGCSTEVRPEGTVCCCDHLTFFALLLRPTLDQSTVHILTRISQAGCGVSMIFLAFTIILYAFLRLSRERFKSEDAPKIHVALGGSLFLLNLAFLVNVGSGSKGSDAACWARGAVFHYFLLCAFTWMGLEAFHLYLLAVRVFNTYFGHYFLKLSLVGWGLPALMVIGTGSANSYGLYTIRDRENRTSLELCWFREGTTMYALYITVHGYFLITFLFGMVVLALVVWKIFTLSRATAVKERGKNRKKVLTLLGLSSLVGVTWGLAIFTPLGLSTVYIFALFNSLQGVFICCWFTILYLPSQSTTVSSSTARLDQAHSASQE
GPR56-ANT (a mutant lacking the extracellular domain), sequence (Q9Y653 383-693 limits assumed, change not shown): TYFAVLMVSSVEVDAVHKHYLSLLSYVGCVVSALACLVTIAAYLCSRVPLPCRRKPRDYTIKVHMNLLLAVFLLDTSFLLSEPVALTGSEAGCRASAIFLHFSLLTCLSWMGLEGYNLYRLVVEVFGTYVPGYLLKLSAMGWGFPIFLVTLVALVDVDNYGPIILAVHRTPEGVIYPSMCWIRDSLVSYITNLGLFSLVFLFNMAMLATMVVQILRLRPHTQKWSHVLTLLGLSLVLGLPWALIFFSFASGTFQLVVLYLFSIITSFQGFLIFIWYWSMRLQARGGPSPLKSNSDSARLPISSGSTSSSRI

SMILES: N[C@H](Cc1c[nH]cn1)C(=O)O [D-His]
- activation of GPR56/AGRG1 [1]: no activity

SMILES: N[C@H](Cc1c[nH]c2ccccc12)C(=O)O [D-Trp]
- activation of GPR56/AGRG1 [1]: no activity

SMILES: N[C@H](Cc1ccc(O)cc1)C(=O)O [D-Tyr]
- activation of GPR56/AGRG1 [1]: no activity

SMILES: NCCc1c[nH]cn1 [histamine, Histamine]
- effect of oral gavage on colon motility [2]: increase colon motility

SMILES: NNCCc1ccccc1 [phenelzine]
- onset of lethargy after MAOI treatment (C57Bl/6, mouse, in vivo): ≤ 4 days
- mortality after treatment with MAOI (mice colonized with M. morganii, died before the seventh day of treatment): more than half
- health after MAOI treatment (mouse, in vivo): remained healthy
- health after treatment with MAOI (mouse, in vivo): appeared healthy
- morbidity after treatment with MAOI (mouse, in vivo): lethargic within days
- DRD2 activation by cecal and colonic contents and serum ([5]; MAOI-treated M. morganii colonized mice): activated DRD2
- phenethylamine as measured by DRD2 activation by cecal and colonic extracts ([5]; mice bi-colonized with C34 and M. morganii): significant levels of phenethylamine
- phenethylamine as measured by DRD2 activation by cecal and colonic extracts ([5]; mice colonized with M. morganii alone): minimal phenethylamine

SMILES: NCCc1ccccc1 [phenethylamine, Phenethylamine]
- activation of DRD2 [6]: selective DRD2/DRD3/DRD4 agonists
- activation of DRD3 [7]: selective DRD2/DRD3/DRD4 agonists
- activation of DRD4 [8]: selective DRD2/DRD3/DRD4 agonists
- crossing of the blood-brain barrier [9]: can readily cross

SMILES: N[C@H](Cc1ccccc1)C(=O)O [D-Phe]
- activation of GPR56/AGRG1 [1]: no activity

Now from value to compound, other results behind:

- activation of GPR56/AGRG1 [1]: no activity
SMILES: N[C@@H](Cc1c[nH]c2ccccc12)C(=O)O [L-Trp, L-tryptophan]

- activation of GPR97/AGRG3 [3]: activated
- activation of GPR56/AGRG1 [1]: stereoselectively activated
- response of GPR56/AGRG1 truncation mutant lacking the extracellular domain [4]: failed to respond
SMILES: N[C@@H](Cc1ccccc1)C(=O)O [L-Phe, L-phenylalanine]

- activation of DRD2 [6]: efficiently activated
SMILES: NCCc1ccc(O)c(O)c1 [dopamine, Dopamine]

- activation of GPR56/AGRG1 [1]: no activity
SMILES: N[C@@H](Cc1c[nH]cn1)C(=O)O [L-His, L-histidine]
- fecal output upon supplementation with L-His [10]: further increased

- activation of DRD2 [6]: selective DRD2/DRD3/DRD4 agonists
- activation of DRD3 [7]: selective DRD2/DRD3/DRD4 agonists
- activation of DRD4 [8]: selective DRD2/DRD3/DRD4 agonists
SMILES: NCCc1ccc(O)cc1 [tyramine, Tyramine]
